From PMC11274883, “Anticancer Effect of Pt^[sequence], Pt^II5MESS, Pt^II56MESS and Their Platinum(IV)-Dihydroxy Derivatives against Triple-Negative Breast Cancer and Cisplatin-Resistant Colorectal Cancer” (Cancers, 2024)

Experiments:
MCF10A = experiment: WST-1 cytotoxicity, 72 h; type: cell-based; conditions: mean ± SEM
Protocol: Cells were seeded in 96-well flat-bottom culture plates at a concentration of 1000 cells per well. […] After 72 h, the medium was removed and replaced with new medium. The cell viability reagent WST-1 (10 µL, Roche Diagnostics, Indianapolis, IN, USA) was added to each well. After an hour, the absorbance was measured at 450 nm using a versatile microplate reader (Bio-strategy, Campbellfield, VIC, Australia). Three separate experiments were performed, each with n = 3 replicates. GraphPad prism 10 was used to calculate apparent IC50 values using the nonlinear regression model Y = Bottom + (Top-Bottom)/(1 + 10^(X-LogIC50)) where Top and bottom are plateaus in the y-axis (% survival). The R^2 value of the curve fits ranged from 0.8972 to 0.9794.

HT29 spheroids = experiment: 3D bioprinted spheroid cytotoxicity (WST-1); type: cell-based; conditions: 72 h, mean ± SEM
Source text: (§1) To evaluate the cytotoxic effect of platinum(II) and (IV) complexes in 3D cell culture, MDA−MB−231 or HT29 cells were used to bioprint networks or spheroids with the non-contact drop-on-demand 3D RASTRUM bioprinter (Inventia Life Science, Alexandria, NSW, Australia). The 3D cultures use two constituents: bioink and activator. Cell pellets (2 × 10^6 cells) were resuspended in an activator reagent which forms an instant gel after its addition to the bioink by the bioprinter. The 3D large plug cell model with polyethylene glycol bioinks formulated to mimic the properties of in vivo tissue were chosen as follows. Matrix Px02.31 (activator F177 and bioink F242 with RGD: Fibronectin) was used for MDA−MB−231 3D embedded networks, Px02.00 (activator F177 and bioink F119 without RGD additives, Table S1) was used for MDA−MB−231 spheroids and matrix #Px02.09 (activator F177 and bioink F236 with adhesion peptides including, RGD: Fibronectin, and GFOGER: collagen type I to recapitulate rich in vivo tissue extracellular environments) was used for HT29 spheroids (Inventia Life Science) (Table S1). Each cell line was printed at 10,000 cells/well and loaded with the bioink fluids into the selected printer cartridge. After the automated priming of all fluids into the printer nozzles, each cell line was individually printed on tissue culture plates (Nunc^TM MicroWell^TM 96-Well, Nunclon Delta-Treated, Flat-Bottom Microplate, ThermoFisher #167008), with RASTRUM creating the 3D Large Plug across the 96-well plate. Following completion of the print run, 200 μL DMEM culture medium was added to each well using multichannel pipettes. The plate was then incubated for 7 days (humidified incubator with 5% CO2 at 37 °C) for compact and homogenous spheroid formation before the cytotoxicity assay. When the spheroids developed, post-7-day incubation, media was removed and replaced with 100 µL DMEM. […] Cytotoxicity was then assessed using the WST-1 assay as previously described in Section 2.3.

MDA−MB−231 spheroids = experiment: 3D bioprinted spheroid cytotoxicity (WST-1); type: cell-based; conditions: 72 h, mean ± SEM
Source text: as §1

MDA−MB−231 cells [1] = experiment: TMRE mitochondrial membrane potential assay; type: cell-based; conditions: complexes at IC50, FCCP 20 µM
Protocol: Cells were then treated with an IC50 drug concentration for each complex. At 24, 48 or 72 h, DMEM was removed, and cells were washed with PBS. Then, cells were incubated with 1 µM tetramethylrhodamine, ethyl ester (TMRE) stain for 30 min. TMRE was then removed, and cells were washed twice with PBS (0.2% BSA), after which phenol red-free media was added. […] The cells were then stained with TMRE, as described above, and the resulting solution was scanned for fluorescence. Three independent experiments in triplicates were implemented.

HT29 cells = experiment: Label-free quantitative proteomics; type: cell-based, Homo Sapiens; conditions: HT29, IC50, 72 h; for number of downregulated differentially expressed proteins / number of upregulated differentially expressed proteins: p < 0.05, fold change > 2
Protocol: (§2) The supernatant was then collected into 15 mL tubes, then the cells were washed with PBS and trypsinised. The detached cells were transferred to allocated tubes and centrifuged at 500× g for 5 min at 4 °C. Cell pellet was washed twice with PBS and then resuspended in 300 µL cell lysis buffer (RIPA) for 30 min on ice. Cell extracts were then centrifuged at 12,000× g for 15 min at 4 °C, and the supernatants (containing the proteins) were collected into Lo-Bind Eppendorf. The Bio-Rad protein assay (Bio-Rad, Hercules, CA, USA) was used to assess protein content. For protein extraction and delipidation 100 µL of the cell homogenate was moved to 1.7 mL Lo-Bind Eppendorf tubes and 450 µL methanol was added to the mixture and vortexed. Chloroform (150 µL) was next added and vortexed. Then, water (450 µL) was added to the mixture, vortexed and centrifuged for 5 min at 12,000× g, which formed the protein pellet at the organic/aqueous interface. The layer of chloroform was removed and then 400 µL of methanol was added. The sample was then vortexed and centrifuged at 12,000× g for 15 min. The supernatant was then aspirated and discarded. The pellet was then washed with methanol (400 µL). The supernatant was removed, and the pellets were air-dried overnight. Next, steps were performed for reduction, alkylation, and tryptic digestion of the protein. 0.1% RapiGest (Waters, Milford, MA, USA) in 50 mM aqueous ammonium bicarbonate (20 µL) was added to the air-dried pellet and vortexed for effective suspension. The pellet should completely dissolve. Then, 50 µL of 7 mM DTT in 50 mM aqueous ammonium bicarbonate was added, to give a final concentration of 5 mM DTT. Samples were then heated for 30 min at 60 °C and cooled to room temperature. Iodoacetamide (45 mM) in 50 mM aqueous ammonium bicarbonate was next added to give a concentration of 15 mM. The mixture was allowed to react in the dark for 30 min. Then, 10 ng/µL of Trypsin Gold, Mass spectrometry grade (Promega, NSW, Australia) was added for digestion to occur at room temperature overnight. And 50 µL of 4% (v/v) aqueous trifluoroacetic acid was then added to each tube. Samples were next heated for 45 min at 37 °C to effect decomposition of RapiGest. Samples were then centrifuged at 12,000× g for 10 min at 4 °C. Supernatants were then transferred to total recovery vials and run on a nanoAcquity Ultra-Performance Liquid Chromatography (UPLC) coupled with a Synapt G2-Si instrument (Waters, MA, USA) was used for label-free quantitative protein profiling. Nano-proteomics method is detailed in Method S1. Three independent experiments in triplicates were implemented, while all samples were analysed in a single run with a single injection (1 µL) for each trial. Mass spectrometry (MS) data were processed using Progenesis QI for proteomics (version 4.1, Nonlinear Dynamics, Newcastle upon Tyne, UK), and aligned using UniProt Homo Sapiens reference database IDEP9.6 utilised to cluster and retrieve the initial signature analyses. […] Enrichment studies were performed using gene lists that corresponded to the identified proteins. Overrepresentation analysis was performed based on Gene Ontology (GO) Biological Processes, GO Cellular Components, and GO Molecular Functions using iDEP. Enrichment maps and STRING apps were used to construct pathways networks and explore protein–protein interactions.

MDA−MB−231 cells [2] = experiment: Label-free quantitative proteomics; type: cell-based, Homo Sapiens; conditions: MDA−MB−231, IC50, 72 h; for number of downregulated differentially expressed proteins / number of upregulated differentially expressed proteins: p < 0.05, fold change > 2
Protocol: as §2

Row | Compound | IC50 (MCF10A) [µM] | IC50 (HT29 spheroids) [µM] | IC50 (MDA−MB−231 spheroids) [µM] | MtMp (mitochondrial membrane potential) (MDA−MB−231 cells [1]; MDA−MB−231, 24 h) [RFU] | MtMp (mitochondrial membrane potential) (MDA−MB−231 cells [1]; MDA−MB−231, 48 h) [RFU] | MtMp (mitochondrial membrane potential) (MDA−MB−231 cells [1]; MDA−MB−231, 72 h) [RFU] | DEPs exhibited by the treatment (UpSet plot) (HT29 cells) | number of downregulated differentially expressed proteins (HT29 cells) | number of upregulated differentially expressed proteins (HT29 cells) | DEPs exhibited by the treatment (UpSet plot) (MDA−MB−231 cells [2]) | number of downregulated differentially expressed proteins (MDA−MB−231 cells [2]) | number of upregulated differentially expressed proteins (MDA−MB−231 cells [2]) | detected up and down differentially regulated proteins (HT29 cells)
1 | N.N.[Cl][Pt][Cl] [Cisplatin, cisplatin] | 4.71 ± 1.47 | 445 ± 5.09 | 48.5 ± 1.62 | 208.24 | 177.91 | 154.83 |  |  |  |  |  |  | 
2 | Cc1cc2cccnc2c2ncccc12.N[C@H]1CCCC[C@@H]1N.O=[N+]([O-])[O-].O=[N+]([O-])[O-].[Pt+2] [Pt^II5MESS, [Pt(5-methyl-1,10-phenanthroline)(1S,2S-diaminocyclohexane)](NO3)2] | 1.18 ± 1.75 | 2.91 ± 1.39 | 4.08 ± 1.37 | 230.62 | 189.85 | 150.71 | 34 | 118 | 110 | 22 | 75 | 91 | 
3 | Cc1c(C)c2cccnc2c2ncccc12.N[C@H]1CCCC[C@@H]1N.O=[N+]([O-])[O-].O=[N+]([O-])[O-].[Pt+2] [Pt^II56MESS, [Pt(5,6-dimethyl-1,10-phenanthroline)(1S,2S-diaminocyclohexane)](NO3)2] | 0.41 | 0.99 ± 1.29 | 2.49 ± 1.98 | 155.45 | 131.53 | 86.51 | 225 | 228 | 200 | 165 | 183 | 132 | 
4 | Cc1cc2cccnc2c2ncccc12.N[C@H]1CCCC[C@@H]1N.O=[N+]([O-])[O-].O=[N+]([O-])[O-].[OH][Pt+2][OH] [Pt^IV5MESS(OH)2, [Pt(5-methyl-1,10-phenanthroline)(1S,2S-diaminocyclohexane)(dihydroxy)](NO3)2] | 12.2 ± 1.48 | 8.46 ± 1.23 | 7.99 ± 1.3 | 250.80 | 201.07 | 155.85 |  |  |  |  | 33 | 38 | 3
5 | Cc1c(C)c2cccnc2c2ncccc12.N[C@H]1CCCC[C@@H]1N.O=[N+]([O-])[O-].O=[N+]([O-])[O-].[OH][Pt+2][OH] [Pt^IV56MESS(OH)2, [Pt(5,6-dimethyl-1,10-phenanthroline)(1S,2S-diaminocyclohexane)(dihydroxy)](NO3)2] | 4.91 ± 1.45 | 3.16 ± 1.32 | 4.59 ± 1.35 | 190.39 | 156.37 | 92.94 |  |  |  |  | 3 | 8 | 3
6 | N[C@H]1CCCC[C@@H]1N.O=[N+]([O-])[O-].O=[N+]([O-])[O-].[OH-].[OH-].[Pt+4].c1cnc2c(c1)ccc1cccnc12 [[Pt(1,10-phenanthroline)(1S,2S-diaminocyclohexane)(dihydroxy)](NO3)2] | 20.5 ± 1.32 | 11.4 ± 1.31 | 13.5 ± 1.25 | 297.56 | 257.95 | 179.38 |  |  |  |  | 5 | 9 | no detected differentials
7 | N[C@H]1CCCC[C@@H]1N.O=[N+]([O-])[O-].O=[N+]([O-])[O-].[Pt+2].c1cnc2c(c1)ccc1cccnc12 [[Pt(1,10-phenanthroline)(1S,2S-diaminocyclohexane)](NO3)2] | 3.49 ± 1.39 | 3.93 ± 1.46 | 5.44 ± 1.35 | 258.17 | 218.19 | 169.95 |  | 10 | 9 |  | 7 | 14 | 
